Data: article PMC8476831, “Pharmacological Characterization of Toludesvenlafaxine as a Triple Reuptake Inhibitor” (Frontiers in Pharmacology, 2021)
Where two headings read alike, the source gives them in different places. Marks after values point to notes of the source that are not given here.

What was measured:
CUMS rats = assay: Chronic unpredictable mild stress (CUMS) model: open field test and sucrose consumption; details: 7.3 mg/kg oral once daily 21 days
From the text: Briefly, SD rats were randomly exposed to various stressors for 3 weeks. […] No stressor was repeated within 2 days for each rat. The control group was housed in a separate room, with free access to food and water, and not disturbed.
Rats received oral administration of study drugs once daily for 21 consecutive days during the chronic stress exposure period. At the end of the chronic stress and drug treatment period, the open field test (21st day) and amount of sucrose consumption (22nd day) were determined.
(§1) Locomotor activity was measured in custom-made acrylic boxes (Height✕Width✕Length: 40✕52✕52 cm). The boxes were placed underneath cameras and all sessions (the duration of the sessions was 5 min) were recorded and data were later quantified by experimenters blinded to treatments. The bottom surface of the boxes was divided into 16 equal squares. Two parameters were quantified from the sessions: the number of squares each rat crossed with both front paws and the number of rearing episodes. Standing with two front paws off the ground was considered one episode of rearing.
(§2) Rats were exposed to 1% sucrose solution in leak-proof bottles for 1 h per day for 3 consecutive days. […] The weight difference of the bottles before and after the 2-h test was considered the total amount of sucrose consumed by the rats.

[1] = system: olfactory bulbectomized rats; assay: Olfactory bulbectomized model: open field test, sucrose consumption, serum corticosterone and testosterone
Method: Thereafter, all rats received daily intragastric dosing for 20 days. The open field test on the 7th and 14th days of dosing, sucrose consumption on the 18th day of dosing, and serum levels of corticosterone and testosterone on the 20th day of dosing were determined.
as §1, §2
The serum corticosterone and testosterone levels were measured following the kit instructions.

[2] = Blood, brain and hypothalamus distribution after single intragastric dose; format: in vivo, Wistar rats; details: rats, toludesvenlafaxine 8 mg/kg intragastric
Method: Total brain and hypothalamus distribution study was conducted in Wistar rats (4/sex/group) following a single intragastric dose at 8 mg/kg. […] All tissues were immediately rinsed with 200 μg/ml dichlorovos (as esterase inhibitor) ice-cold saline after collection and then were stored at −80°C until analysis using LC-MS/MS.

striatum = system: striatum; set-up: method as in Zhang et al., 2014; details: ref Zhang et al., 2014; cited from earlier work
[3] = 7.3 mg/kg daily, 20th day of dosing
[4] = both sexes, Wistar, rat, blood, oral, read-out: Blood concentration
[5] = both sexes, Wistar, rat, brain, oral, read-out: Brain concentration
[6] = both sexes, Wistar, rat, hypothalamus, oral, read-out: Hypothalamus concentration

## CN(C)CC(c1ccc(O)cc1)C1(O)CCCCC1 (stereo not drawn) [DVS, desvenlafaxine succinate monohydrate]
CUMS rats; day 22
  Sugar consumption rate: 82.1 ± 7.4^d %
CUMS rats; open field day 21
  Numbers of squares crossed: 47.0 ± 12.1^e
  Rearing time: 15.2 ± 3.9^d seconds
[1]; 7.3 mg/kg daily intragastric
  Moving distance (squares crossed) Day 7: 26.8 ± 7.6 squares crossed
  Moving distance (squares crossed) Day 14: 26.7 ± 10.1 squares crossed
  Rearing time Day 7: 7.0 ± 3.1^d seconds
  Rearing time Day 14: 9.4 ± 3.1^d seconds
[1]; 7.3 mg/kg daily, 18th day of dosing
  Sugar consumption rate: 58.1 ± 26.6%
[1]; [3]
  Corticosterone (serum): 394.1 ± 231.6 ng/L
  Testosterone (serum): 2.4 ± 1.8 ng/mL

## CN(C)CC(c1ccc(O)cc1)C1(O)CCCCC1 (stereo not drawn) [ODV, O-desmethylvenlafaxine]
[2]; both sexes, Wistar, rat, blood, oral, 15 min row (footnote: detected at 20 min)
  concentration at 20 min: 90.9 ± 33.5 ng/mL
[2]; [4]
  concentration at 1 h: 68.2 ± 23.6 ng/mL
  concentration at 12 h: 2.84 ± 2.69 ng/mL
[2]; both sexes, Wistar, rat, brain, oral, 15 min, read-out: Brain concentration
  concentration at 15 min: 13.8 ± 8.4 ng/g
[2]; [5]
  concentration at 1 h: 20.9 ± 6.8 ng/g
  concentration at 12 h: 2.06 ± 1.29 ng/g
[2]; both sexes, Wistar, rat, hypothalamus, oral, 15 min, read-out: Hypothalamus concentration
  concentration at 15 min: 92.5 ng/g
[2]; [6]
  concentration at 1 h: 97.9 ± 58 ng/g
  concentration at 12 h: 7.22 ± 6.79 ng/g
[2]; 15 min
  Hypothalamus concentration: 92.52 ± 68.23 ng/g
striatum
  striatal DA level: does not increase
